Structures can show the parent of a compound that is named as a salt.
Target: T1, H^+/K^+-ATPase (Sus scrofa, UniProt P19156)
T1 construct: used as an enzyme source of the in vitro enzyme reaction assay of proton pump; from tissue; host or cells: hog gastric fundic mucosa (membrane vesicles, lyophilized)
Test: Inhibitory effects on proton pump (H^+/K^+-ATPase) activity, hog gastric vesicles
Assay type: biochemical
Conditions: K^+ stimulated H^+/K^+-ATPase activity, hog gastric vesicle, Pi measured at 620 nm
Description: Preparation of Gastric Proton Pump Vesicles
The hog fundic regions containing parietal and peptic cells were scraped with slide-glass. The collected cells were suspended in 10 ml of 0.25M sucrose buffer and homogenized using a tight-fitting Teflon-glass homogenizer. The homogenate was centrifuged for 35 min at 8,000 rpm and the pellet was discarded. The supernatant was further centrifuged for 75 min at 25,000 rpm. The resulting pellets were re-suspended in the sucrose buffer (10 ml), and then the suspension was laid onto discontinuous density gradients consisting of 0.25M sucrose buffer and isolation medium containing 9% Ficoll (w/w). After being centrifuged for 3 hours and 15 minutes at 100,000×g, the material at the interface of sucrose buffer and Ficoll solution was collected and then centrifuged for 40 minutes at 100,000×g. The resulting pellets were re-suspended in 1 ml of 5 mM Hepes/Tris buffer (pH 6.1). This material was lyophilized and stored at −70° C. and used as an enzyme source of the in vitro enzyme reaction assay of proton pump.
1-2. Measurement of Inhibitory Effects on Proton Pump (H+/K+-ATPase) activity
The inhibitory effects of the compounds of the present invention against proton pump activity were evaluated in 96-well plate. In this assay, the K^+ specific H^+/K^+-ATPase activity was calculated based on the difference between the activity of H^+/K^+-ATPase activity with K^+ and without K^+ ion. In 96-well plate, 1% dimethylsulfoxide (DMSO) in buffer was added to negative and positive control groups and the diluted compounds of the present invention in buffer were added to test group. All assays were performed in 100 μl reaction volume at room temperature, and the hog gastric vesicle was kept in ice before use. At the beginning of the reaction, 10 μl of reaction buffer containing 1% DMSO was added to the negative and positive control groups and to each concentration of compounds in the test group. Then lyophilized vesicle in 5 mM Pipes/Tris buffer (pH 6.1) was pre-incubated in the presence of various concentrations of test compounds. After a 5 minute incubation, negative and positive buffers were respectively added to the previous reaction mixture. As the substrate, ATP was added to the reaction buffer, and incubated for 30 minutes at 37° C. Enzymatic activity was stopped by the addition of colorimetric reagent (2× malachite green, 1× ammonium molybdate, 1× polyvinyl alcohol, 2× H2O) and the amount of mono phosphate (Pi) in the reaction was measured at 620 nm using the micro plate reader (Genios Pro, TECAN). The difference between the Pi production with K^+ and without K^+ is taken as K^+ stimulated H^+/K^+-ATPase activity.

T1 sequence (P19156 2-1034 limits assumed): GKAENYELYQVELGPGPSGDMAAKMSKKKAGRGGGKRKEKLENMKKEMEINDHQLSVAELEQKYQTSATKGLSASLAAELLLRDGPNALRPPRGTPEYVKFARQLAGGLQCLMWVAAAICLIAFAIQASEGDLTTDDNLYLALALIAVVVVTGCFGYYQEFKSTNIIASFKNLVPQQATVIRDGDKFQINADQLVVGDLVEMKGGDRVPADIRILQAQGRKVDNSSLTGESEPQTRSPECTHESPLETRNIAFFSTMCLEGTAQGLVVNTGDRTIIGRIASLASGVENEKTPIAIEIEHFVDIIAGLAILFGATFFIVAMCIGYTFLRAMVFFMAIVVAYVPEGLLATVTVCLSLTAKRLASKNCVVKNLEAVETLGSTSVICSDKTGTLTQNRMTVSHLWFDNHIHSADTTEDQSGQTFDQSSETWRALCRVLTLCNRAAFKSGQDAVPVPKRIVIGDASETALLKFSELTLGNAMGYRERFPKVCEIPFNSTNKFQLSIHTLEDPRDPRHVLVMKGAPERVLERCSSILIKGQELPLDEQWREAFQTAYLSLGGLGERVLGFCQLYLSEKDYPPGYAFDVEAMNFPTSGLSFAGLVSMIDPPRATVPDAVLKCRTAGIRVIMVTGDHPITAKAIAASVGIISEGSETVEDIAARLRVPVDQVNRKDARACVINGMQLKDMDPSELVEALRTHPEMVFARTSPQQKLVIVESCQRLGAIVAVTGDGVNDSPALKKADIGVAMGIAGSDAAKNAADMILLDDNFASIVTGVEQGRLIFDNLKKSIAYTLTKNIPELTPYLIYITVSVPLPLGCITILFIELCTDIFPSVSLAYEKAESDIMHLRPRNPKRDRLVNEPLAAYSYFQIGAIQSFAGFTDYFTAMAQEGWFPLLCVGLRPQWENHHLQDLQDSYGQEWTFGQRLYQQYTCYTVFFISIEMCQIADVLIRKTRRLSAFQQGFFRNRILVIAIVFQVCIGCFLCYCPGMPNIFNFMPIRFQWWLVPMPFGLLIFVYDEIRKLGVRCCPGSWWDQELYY
T1 sequence (P18434 whole entry partner): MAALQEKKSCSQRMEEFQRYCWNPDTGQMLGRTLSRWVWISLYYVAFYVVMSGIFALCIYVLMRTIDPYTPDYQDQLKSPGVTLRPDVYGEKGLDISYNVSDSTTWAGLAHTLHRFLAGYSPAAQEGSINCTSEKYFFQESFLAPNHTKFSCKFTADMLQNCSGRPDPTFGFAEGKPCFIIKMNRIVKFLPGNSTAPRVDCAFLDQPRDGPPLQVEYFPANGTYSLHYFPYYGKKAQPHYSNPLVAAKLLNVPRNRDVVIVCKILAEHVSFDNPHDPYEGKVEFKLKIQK

Row | IC50 | Compound
1 | 570 nM | Cc1c(C)n(CC2CCC2)c2c(OCc3cc(F)cc(F)c3)ccnc12 [Example 179, 1-cyclobutylmethyl-7-(3,5-difluorobenzyloxy)-2,3-dimethyl-1H-pyrrolo[3,2-b]pyridine hydrochloride]
2 | 380 nM | Cc1ccc(Cn2c(C)c(C)c3nccc(OCc4cc(F)cc(F)c4)c32)cc1 [Example 196, 7-(3,5-difluorobenzyloxy)-1-(4-methylbenzyl)-2,3-dimethyl-1H-pyrrolo[3,2-b]pyridine hydrochloride]
3 | 80 nM | Cc1c(C)n(Cc2ccc(F)cc2)c2c(OCc3ccc(Cl)cc3Cl)ccnc12 [Example 140, 7-(2,4-dichlorobenzyloxy)-1-(4-fluorobenzyl)-2,3-dimethyl-1H-pyrrolo[3,2-b]pyridine hydrochloride]
4 | 40 nM | COCCn1c(C)c(C)c2nccc(OCc3ccc(F)cc3)c21 [Example 129, 7-(4-fluorobenzyloxy)-1-(2-methoxyethyl)-2,3-dimethyl-1H-pyrrolo[3,2-b]pyridine phosphate]
5 | 630 nM | COCCn1c(C)c(C)c2nccc(OCc3ccc4c(c3)OCO4)c21 [Example 99, 7-(benzo[1,3]dioxol-5-ylmethoxy)-1-(2-methoxyethyl)-2,3-dimethyl-1H-pyrrolo[3,2-b]pyridine hydrochloride]
6 | 60 nM | Cc1c(C)n(Cc2ccccc2)c2c(OCc3ccc(Br)cc3)ccnc12 [Example 219, 1-benzyl-7-(4-bromobenzyloxy)-2,3-dimethyl-1H-pyrrolo[3,2-b]pyridine hydrochloride]
7 | 50 nM | COCCn1c(C)c(C)c2nccc(OCc3ccc(F)cc3)c21 [Example 132, 7-(4-fluorobenzyloxy)-1-(2-methoxyethyl)-2,3-dimethyl-1H-pyrrolo[3,2-b]pyridine oxalate]
8 | 680 nM | Cc1c(C)n(Cc2ccccc2)c2c(OCc3cc(F)cc(F)c3)ccnc12 [Example 195, 1-benzyl-7-(3,5-difluorobenzyloxy)-2,3-dimethyl-1H-pyrrolo[3,2-b]pyridine hydrochloride]
9 | 1210 nM | Cc1c(C)n(Cc2ccc(Cl)cc2)c2c(OCc3cc(F)cc(F)c3)ccnc12 [Example 183, 1-(4-chlorobenzyl)-7-(3,5-difluorobenzyloxy)-2,3-dimethyl-1H-pyrrolo[3,2-b]pyridine hydrochloride]
10 | 130 nM | Cc1ccc(Cn2c(C)c(C)c3nccc(OCc4ccc(Cl)cc4)c32)cc1 [Example 96, 7-(4-chlorobenzyloxy)-1-(4-methylbenzyl)-2,3-dimethyl-1H-pyrrolo[3,2-b]pyridine hydrochloride]
11 | 4700 nM | Cc1ccc(C)c(Cn2c(C)c(C)c3nccc(OCc4ccc(Cl)cc4)c32)c1 [Example 82, 7-(4-chlorobenzyloxy)-1-(2,5-dimethylbenzyl)-2,3-dimethyl-1H-pyrrolo[3,2-b]pyridine hydrochloride]
12 | 20 nM | COCCn1c(C)c(C)c2nccc(OCc3ccc(F)cc3)c21 [Example 122, 7-(4-fluorobenzyloxy)-1-(2-methoxyethyl)-2,3-dimethyl-1H-pyrrolo[3,2-b]pyridine]
13 | 460 nM | Cc1c(C)n(Cc2ccc(F)cc2)c2c(OCc3ccc4c(c3)OCO4)ccnc12 [Example 118, 7-(benzo[1,3]dioxol-5-ylmethoxy)-1-(4-fluorobenzyl)-2,3-dimethyl-1H-pyrrolo[3,2-b]pyridine hydrochloride]
14 | 70 nM | Cc1ccc(Cn2c(C)c(C)c3nccc(OCc4ccc5c(c4)OCO5)c32)cc1 [Example 114, 7-(benzo[1,3]dioxol-5-ylmethoxy)-1-(4-methylbenzyl)-2,3-dimethyl-1H-pyrrolo[3,2-b]pyridine hydrochloride]
15 | 840 nM | CCOc1ccccc1COc1ccnc2c(C)c(C)n(Cc3cccc(F)c3)c12 [Example 178, 1-(3-fluorobenzyl)-7-(2-ethoxybenzyloxy)-2,3-dimethyl-1H-pyrrolo[3,2-b]pyridine hydrochloride]
16 | 1420 nM | Cc1cccc(Cn2c(C)c(C)c3nccc(OCc4ccc5c(c4)OCO5)c32)c1 [Example 113, 7-(benzo[1,3]dioxol-5-ylmethoxy)-2,3-dimethyl-1-(3-methylbenzyl)-1H-pyrrolo[3,2-b]pyridine hydrochloride]
17 | 330 nM | Cc1c(C)n(Cc2ccccc2F)c2c(N3CCc4ccccc4C3)ccnc12 [Example 9, 1-(2-fluorobenzyl)-7-(1,2,3,4-tetrahydroisoquinolin-2-yl)-2,3-dimethyl-1H-pyrrolo[3,2-b]pyridine hydrochloride]

Row | IC50 | Compound
18 | 570 nM | CC(C)=CCn1c(C)c(C)c2nccc(OCc3ccc(F)cc3)c21 [Example 56, hydrochloride]
19 | 1010 nM | Cc1c(C)n(Cc2ccccc2F)c2c(OCc3ccc4c(c3)OCO4)ccnc12 [Example 101, 7-(benzo[1,3]dioxol-5-ylmethoxy)-1-(2-fluorobenzyl)-2,3-dimethyl-1H-pyrrolo[3,2-b]pyridine hydrochloride]
20 | 290 nM | CCOc1ccccc1COc1ccnc2c(C)c(C)n(Cc3cccc(OC)c3)c12 [Example 177, 7-(2-ethoxybenzyloxy)-1-(3-methoxybenzyl)-2,3-dimethyl-1H-pyrrolo[3,2-b]pyridine hydrochloride]
21 | 1070 nM | Cc1c(C)n(Cc2ccc(F)cc2)c2c(OCc3cc(F)cc(F)c3)ccnc12 [Example 184, 7-(3,5-difluorobenzyloxy)-1-(4-fluorobenzyl)-2,3-dimethyl-1H-pyrrolo[3,2-b]pyridine hydrochloride]
22 | 670 nM | Cc1c(C)n(Cc2ccc(Cl)cc2)c2c(OCc3ccc(Cl)cc3)ccnc12 [Example 88, 7-(4-chlorobenzyloxy)-1-(4-chlorobenzyl)-2,3-dimethyl-1H-pyrrolo[3,2-b]pyridine hydrochloride]
23 | 1150 nM | CCOc1ccccc1COc1ccnc2c(C)c(C)n(CCOC)c12 [Example 162, 7-(2-ethoxybenzyloxy)-1-(2-methoxyethyl)-2,3-dimethyl-1H-pyrrolo[3,2-b]pyridine hydrochloride]
24 | 140 nM | CCn1c(C)c(C)c2nccc(OCc3ccc(Cl)cc3)c21 [Example 90, 7-(4-chlorobenzyloxy)-1-ethyl-2,3-dimethyl-1H-pyrrolo[3,2-b]pyridine hydrochloride]
25 | 440 nM | COc1cccc(Cn2c(C)c(C)c3nccc(N4CCc5ccccc5C4)c32)c1 [Example 8, 1-(3-methoxybenzyl)-7-(1,2,3,4-tetrahydroisoquinolin-2-yl)-2,3-dimethyl-1H-pyrrolo[3,2-b]pyridine hydrochloride]
26 | 200 nM | Cc1c(C)n(Cc2ccccc2)c2c(N3CCc4ccccc4C3)ccnc12 [Example 6, 1-benzyl-7-(1,2,3,4-tetrahydroisoquinolin-2-yl)-2,3-dimethyl-1H-pyrrolo[3,2-b]pyridine hydrochloride]
27 | 150 nM | Cc1c(C)n(Cc2cccc(F)c2)c2c(OCc3ccc4c(c3)OCO4)ccnc12 [Example 116, 7-(benzo[1,3]dioxol-5-ylmethoxy)-1-(3-fluorobenzyl)-2,3-dimethyl-1H-pyrrolo[3,2-b]pyridine hydrochloride]
28 | 650 nM | Cc1c(C)n(Cc2ccc(Cl)cc2)c2c(N3CCc4ccccc4C3)ccnc12 [Example 1, 1-(4-chlorobenzyl)-7-(1,2,3,4-tetrahydroisoquinolin-2-yl)-2,3-dimethyl-1H-pyrrolo[3,2-b]pyridine hydrochloride]
29 | 390 nM | CC(C)=CCn1c(C)c(C)c2nccc(OCc3ccc(Cl)cc3)c21 [Example 84, 7-(4-chlorobenzyloxy)-2,3-dimethyl-1-(3-methylbut-2-enyl)-1H-pyrrolo[3,2-b]pyridine hydrochloride]
30 | 120 nM | Cc1ccc(Cn2c(C)c(C)c3nccc(OCc4ccc(Br)cc4)c32)cc1 [Example 224, 7-(4-bromobenzyloxy)-2,3-dimethyl-1-(4-methylbenzyl)-1H-pyrrolo[3,2-b]pyridine hydrochloride]
31 | 340 nM | Cc1c(C)n(Cc2ccccc2F)c2c(OCc3ccc(Cl)cc3)ccnc12 [Example 89, 7-(4-chlorobenzyloxy)-1-(2-fluorobenzyl)-2,3-dimethyl-1H-pyrrolo[3,2-b]pyridine hydrochloride]
32 | 3280 nM | Cc1[nH]c2c(OCc3ccc(Br)cc3)ccnc2c1C [Example 218, 7-(4-bromobenzyloxy)-2,3-dimethyl-1H-pyrrolo[3,2-b]pyridine]
33 | 30 nM | Cc1c(C)n(CC(C)C)c2c(OCc3ccc(Br)cc3)ccnc12 [Example 228, 7-(4-bromobenzyloxy)-1-isobutyl-2,3-dimethyl-1H-pyrrolo[3,2-b]pyridine hydrochloride]
